Read-outs that look alike come from different tables or passages of the source.
What was measured:
[1] = target: His tagged CRBN+DDB−DLS7+CXU4 (Homo sapiens (Human), UniProt Q96SW2); test: IC50 Measurements for Binding to CRBN/DDBI (HTRF); details: Cy5-labeled Thalidomide probe, one hour incubation
[2] = target: IKZF2 (Homo sapiens (Human), UniProt Q96SW2+Q9UKS7); test: IKZF2 HiBit Assay (HEK293T Flp-in-HiBiT cells); type: cell-based; details: for DC50: read-out: IKZF2 HiBit degradation DC50; for Dmax: HEK-293T, read-out: IKZF2 HiBit degradation Dmax
Experimental: The HiBiT protein tagging system was applied to modified HEK293T Flp-in-HiBiT cells (polyclone) via a CRISPR/Cas9—mediated insertion of the HiBiT peptide tag (Promega™) to the N-terminus of the IKZF2 gene locus (Neon™ transfection system). Test and reference compounds are diluted from 1 mM at 3 folds for 11 doses. 25 nL of diluted compound is transferred to assay plates (Corning3570) using ECHO550, the final DMSO concentration @0.1%. The cells are seeded in 3000/[…]/well to compound plates. It is then incubated for 6 hrs in TC incubator. The amount of Nano-Glo® HiBiT lytic reagent needed to perform the desired experiments is calculated. The Nano-Glo® HiBiT lytic reagent is brought to room temperature. The LgBiT protein is diluted to 1:100 and the Nano-Glo® HiBiT lytic substrate is diluted to 1:50 into an appropriate volume of room temperature Nano-Glo® HiBiT lytic buffer. […] of the detection reagent (or without LgBiT) is dispensed to corresponding well according to the layout. The plate is then shaked for 10 mins at room temperature. After briefly centrifuge, the plate is read on Envision. At the indicated timepoints, the Nano-Glo® HiBiT lytic detection system (Promega™) was utilized for detecting bioluminescence of the HiBiT tag in treated cells: abundance of the tag is proportionate to the level of luminescence. Following normalization to DMSO, dose-response curves were plotted (GraphPad Prism) to determine the concentration points at which 50% of HiBiT-Helios degradation was achieved by each compound. The extent of degradation (range of luminescence) from the highest to lowest concentration points was calculated to determine the Dmax.

[3] = target: IKZF1 (Homo sapiens (Human), UniProt Q13422+Q96SW2); test: IKZF1 HiBit Assay (HEK293T Flp-in-HiBiT-IKZF1 stable cell line); type: cell-based; details: for DC50: read-out: IKZF1 HiBit degradation DC50; for Dmax: HEK-293T, read-out: IKZF1 HiBit degradation Dmax
Experimental: The HiBiT protein tagging system was applied to modified Cells: modified HEK293T Flp-in-HiBiT-IKZF1 stable cell line (polyclone) via a CRISPR/Cas9—mediated insertion of the HiBiT peptide tag (Promega™) to the N-terminus of the IKZF2 gene locus (Neon™ transfection system).
Test compound from 10 mM and reference compound (CC-92480 from 50 mM and I-57 from 10 mM) are diluted at 3 folds for 11 doses. 25 nL of diluted compound is transferred to assay plates (Corning3571) using ECHO550, the final DMSO concentration @0.1%. The cells are seeded in 3000/[…]/well to compound plates. The plates are incubated for 6 hrs in TC incubator. The amount of Nano-Glo® HiBiT lytic reagent needed to perform the desired experiments is calculated. The Nano-Glo® HiBiT lytic reagent is brought to room temperature. The LgBiT protein is diluted to 1:100 and the Nano-Glo® HiBiT lytic substrate is brought to 1:50 into an appropriate volume of room temperature Nano-Glo® HiBiT lytic buffer. […] of the detection reagent (or without LgBiT) is dispensed to corresponding well according to the layout. The plate is shaked for 10 mins at room temperature. After briefly centrifuging, the plate is read on Envision. At the indicated timepoints, the Nano-Glo® HiBiT lytic detection system (Promega™) was utilized for detecting bioluminescence of the HiBiT tag in treated cells: abundance of the tag is proportionate to the level of luminescence. Following normalization to DMSO, dose-response curves were plotted (GraphPad Prism) to determine the concentration points at which 50% of HiBiT-Ikaros degradation was achieved by each compound. The extent of degradation (range of luminescence) from the highest to lowest concentration points was calculated to determine the Dm.

[4] = HEK293T Flp-in-HiBiT cells, 6 hrs
[5] = HEK293T Flp-in-HiBiT-IKZF1 cells, 6 hrs

Chain of His tagged CRBN+DDB−DLS7+CXU4 (Q96SW2 whole entry): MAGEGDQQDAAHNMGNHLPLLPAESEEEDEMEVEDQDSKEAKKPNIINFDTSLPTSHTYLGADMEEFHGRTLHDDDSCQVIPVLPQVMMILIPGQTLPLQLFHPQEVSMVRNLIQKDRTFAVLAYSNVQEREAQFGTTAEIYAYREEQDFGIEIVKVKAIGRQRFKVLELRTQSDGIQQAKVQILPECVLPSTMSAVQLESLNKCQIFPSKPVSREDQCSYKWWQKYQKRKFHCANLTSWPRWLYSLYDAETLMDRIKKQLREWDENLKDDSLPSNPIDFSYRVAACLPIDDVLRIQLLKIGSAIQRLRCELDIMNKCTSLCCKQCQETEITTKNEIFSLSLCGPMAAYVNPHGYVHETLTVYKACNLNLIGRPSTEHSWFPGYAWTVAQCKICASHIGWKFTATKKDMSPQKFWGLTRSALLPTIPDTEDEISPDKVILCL
Chain of His tagged CRBN+DDB−DLS7+CXU4 (Q16531 whole entry partner): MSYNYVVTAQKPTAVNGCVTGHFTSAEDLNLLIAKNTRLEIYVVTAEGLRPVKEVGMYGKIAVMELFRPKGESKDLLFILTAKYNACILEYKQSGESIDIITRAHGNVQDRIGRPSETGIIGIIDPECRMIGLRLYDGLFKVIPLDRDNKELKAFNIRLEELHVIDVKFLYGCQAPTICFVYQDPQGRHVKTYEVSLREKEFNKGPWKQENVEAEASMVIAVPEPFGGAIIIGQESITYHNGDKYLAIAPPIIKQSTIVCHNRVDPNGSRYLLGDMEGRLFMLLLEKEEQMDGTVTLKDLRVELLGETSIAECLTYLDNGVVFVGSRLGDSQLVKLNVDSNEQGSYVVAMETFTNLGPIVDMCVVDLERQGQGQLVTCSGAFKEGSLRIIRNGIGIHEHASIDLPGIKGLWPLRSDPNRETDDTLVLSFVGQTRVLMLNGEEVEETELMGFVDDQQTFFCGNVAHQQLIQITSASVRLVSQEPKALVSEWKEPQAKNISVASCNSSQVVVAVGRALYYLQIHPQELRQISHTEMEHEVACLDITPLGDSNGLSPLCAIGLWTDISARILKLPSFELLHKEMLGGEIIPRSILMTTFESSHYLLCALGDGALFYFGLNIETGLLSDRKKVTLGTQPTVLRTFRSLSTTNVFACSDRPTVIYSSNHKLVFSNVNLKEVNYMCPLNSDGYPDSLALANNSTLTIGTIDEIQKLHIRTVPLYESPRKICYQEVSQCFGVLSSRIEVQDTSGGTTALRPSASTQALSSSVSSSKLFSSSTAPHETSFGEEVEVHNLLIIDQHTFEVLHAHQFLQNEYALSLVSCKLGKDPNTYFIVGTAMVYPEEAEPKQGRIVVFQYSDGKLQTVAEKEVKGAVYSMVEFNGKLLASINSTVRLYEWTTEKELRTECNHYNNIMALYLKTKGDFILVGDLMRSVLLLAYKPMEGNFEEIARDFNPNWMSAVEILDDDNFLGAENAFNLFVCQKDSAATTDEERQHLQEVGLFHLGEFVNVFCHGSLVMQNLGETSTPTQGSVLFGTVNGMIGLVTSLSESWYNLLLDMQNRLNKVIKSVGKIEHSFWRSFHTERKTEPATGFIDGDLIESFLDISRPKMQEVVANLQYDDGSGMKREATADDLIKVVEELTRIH
Chain of IKZF2 (Q9UKS7 whole entry): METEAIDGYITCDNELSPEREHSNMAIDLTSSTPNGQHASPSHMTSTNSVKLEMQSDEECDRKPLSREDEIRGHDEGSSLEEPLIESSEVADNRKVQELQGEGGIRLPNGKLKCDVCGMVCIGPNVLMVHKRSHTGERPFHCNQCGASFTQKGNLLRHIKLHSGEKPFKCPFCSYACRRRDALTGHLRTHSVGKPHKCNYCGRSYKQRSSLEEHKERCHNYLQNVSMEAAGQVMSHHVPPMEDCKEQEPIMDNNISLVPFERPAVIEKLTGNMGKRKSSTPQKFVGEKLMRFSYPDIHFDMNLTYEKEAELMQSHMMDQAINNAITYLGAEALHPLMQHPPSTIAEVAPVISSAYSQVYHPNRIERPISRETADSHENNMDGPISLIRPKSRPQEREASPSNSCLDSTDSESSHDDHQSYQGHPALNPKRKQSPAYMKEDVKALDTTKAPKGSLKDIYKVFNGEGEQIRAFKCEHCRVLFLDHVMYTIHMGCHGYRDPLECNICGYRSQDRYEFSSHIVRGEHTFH
Chain of IKZF2 (Q96SW2 whole entry): as the sequence (Q96SW2 whole entry) above
Chain of IKZF2 (Q16531 whole entry partner): as the sequence (Q16531 whole entry partner) above
Chain of IKZF1 (Q13422 whole entry): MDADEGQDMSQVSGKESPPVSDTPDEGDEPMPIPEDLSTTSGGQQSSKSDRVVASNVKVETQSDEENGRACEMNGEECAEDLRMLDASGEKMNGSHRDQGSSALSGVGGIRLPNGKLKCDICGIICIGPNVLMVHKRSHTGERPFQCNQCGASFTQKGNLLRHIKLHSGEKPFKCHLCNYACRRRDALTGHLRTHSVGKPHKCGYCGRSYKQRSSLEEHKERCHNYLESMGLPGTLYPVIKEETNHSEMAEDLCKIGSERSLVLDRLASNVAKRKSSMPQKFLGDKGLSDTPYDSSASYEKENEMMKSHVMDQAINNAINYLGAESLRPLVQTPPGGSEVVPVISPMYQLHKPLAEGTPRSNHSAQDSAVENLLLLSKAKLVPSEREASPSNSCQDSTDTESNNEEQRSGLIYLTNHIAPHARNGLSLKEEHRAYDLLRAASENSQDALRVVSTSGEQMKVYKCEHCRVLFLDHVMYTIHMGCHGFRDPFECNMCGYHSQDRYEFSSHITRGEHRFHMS
Chain of IKZF1 (Q96SW2 whole entry): as the sequence (Q96SW2 whole entry) above
Chain of IKZF1 (Q16531 whole entry partner): as the sequence (Q16531 whole entry partner) above

Row | Compound | IC50 [1] | IKZF2 HiBit degradation Dmax [2, 4] | DC50 [2, 4] | IKZF1 HiBit degradation Dmax [3, 5] | DC50 [3, 5] | Dmax [2, 4] | Dmax [3, 5] | Dmax [2] | Dmax [3]
1 | (3S)-3-(1′-((1H-indazol-6-yl)methyl)-3′,3′-difluoro-3-oxo-1,3,7,8-tetrahydro-2H-spiro[cyclopenta[e]isoindole-6,4′-piperidin]-2-yl)piperidine-2,6-dione [Compound B33] | 100 to 500 nM | B (B: 60-80%) | 1 to 10 nM | C (C: <20%) | > 1000 nM | – | – | – | –
2 | [2H]C([2H])(c1ccc2cn(C)nc2c1)N1CCC2(CC1)COc1c2ccc2c1CN([C@H]1CCC(=O)NC1=O)C2=O [Compound B7, (S)-3-(1′-((2-methyl-2H-indazol-6-yl)methyl-d2)-6-oxo-6,8-dihydro-2H,7H-spiro[furo[2,3-e]isoindole-3,4′-piperidin]-7-yl)piperidine-2,6-dione] | 100 to 500 nM | – | 1 to 10 nM | – | > 1000 nM | 60 to 80% | < 20% | – | –
3 | [2H]C([2H])(c1cccc(-c2cnn(C)c2)c1)N1CCC2(COc3c2ccc2c3CN([C@H]3CCC(=O)NC3=O)C2=O)C(F)(F)C1 (stereo partly drawn) [Compound B50] | 100 to 500 nM | – | 1 to 10 nM | – | > 1000 nM | 60 to 80% | < 20% | – | –
4 | [2H]C([2H])([2H])n1cc(-c2cccc(CN3CCC4(COc5c4ccc4c5CN([C@H]5CCC(=O)NC5=O)C4=O)C(F)(F)C3)c2)cn1 (stereo partly drawn) [Compound B49, (3S)-3-(3′,3′-difluoro-1′-(3-(1-(methyl-d3)-1H-pyrazol-4-yl)benzyl)-6-oxo-6,8-dihydro-2H,7H-spiro[furo[2,3-e]isoindole-3,4′-piperidin]-7-yl) piperidine-2,6-dione] | 100 to 500 nM | – | < 1 nM | – | > 1000 nM | > 80% | < 20% | – | –
5 | Cn1cc(-c2cccc(CN3CCC4(CC3)COc3c4cc(F)c4c3CN([C@H]3CCC(=O)NC3=O)C4=O)c2)cn1 [Compound B16, (S)-3-(5-fluoro-1′-(3-(1-methyl-1H-pyrazol-4-yl)benzyl)-6-oxo-6,8-dihydro-2H,7H-spiro[furo[2,3-e]isoindole-3,4′-piperidin]-7-yl)piperidine-2,6-dione] | 100 to 500 nM | – | 1 to 10 nM | – | > 1000 nM | 40 to 60% | < 20% | – | –
6 | Cn1cc(-c2cccc(CN3CC[C@@]4(COc5c4ccc4c5CN([C@H]5CCC(=O)NC5=O)C4=O)C(F)(F)C3)c2)cn1 [Compound B52, (S)-3-((R)-3′,3′-difluoro-1′-(3-(1-methyl-1H-pyrazol-4-yl)benzyl)-6-oxo-6,8-dihydro-2H,7H-spiro[furo[2,3-e]isoindole-3,4′-piperidin]-7-yl)piperidine-2,6-dione] | 100 to 500 nM | – | 1 to 10 nM | – | > 1000 nM | 40 to 60% | < 20% | – | –
7 | O=C1CC[C@H](N2Cc3c(ccc4c3OCC43CCN(Cc4cnn(-c5ccc(Cl)cc5)c4C(F)(F)F)CC3)C2=O)C(=O)N1 [Compound B1, (S)-3-(1′-((1-(4-chlorophenyl)-5-(trifluoromethyl)-1H-pyrazol-4-yl)methyl)-6-oxo-6,8-dihydro-2H,7H-spiro[furo[2,3-e]isoindole-3,4′-piperidin]-7-yl) piperidine-2,6-dione] | 500 to 1000 nM | – | 1 to 10 nM | – | 100 to 1000 nM | 40 to 60% | 20 to 40% | – | –
8 | [2H]C([2H])(c1ccc2cnn(C)c2c1)N1CCC2(CC1)COc1c2ccc2c1CN([C@H]1CCC(=O)NC1=O)C2=O [Compound B8, (S)-3-(1′-((1-methyl-1H-indazol-6-yl)methyl-d2)-6-oxo-6,8-dihydro-2H,7H-spiro[furo[2,3-e]isoindole-3,4′-piperidin]-7-yl)piperidine-2,6-dione] | 100 to 500 nM | – | 1 to 10 nM | – | > 1000 nM | – | – | 60 to 80% | < 20%
9 | Cn1cc2c(CN3CCC4(COc5c4ccc4c5CN([C@H]5CCC(=O)NC5=O)C4=O)C(F)(F)C3)cccc2n1 (stereo partly drawn) [Compound B42, (3S)-3-(3′,3′-difluoro-1′-((2-methyl-2H-indazol-4-yl)methyl)-6-oxo-6,8-dihydro-2H,7H-spiro[furo[2,3-e]isoindole-3,4′-piperidin]-7-yl)piperidine-2,6-dione] | 100 to 500 nM | – | 1 to 10 nM | – | > 1000 nM | 60 to 80% | < 20% | – | –
10 | CC1CN(Cc2cccc(-c3cnn(C)c3)c2)CCC12COc1c2ccc2c1CN(C1CCC(=O)NC1=O)C2=O (stereo not drawn) [Compound B21, 3-(3′-methyl-1′-(3-(1-methyl-1H-pyrazol-4-yl)benzyl)-6-oxo-6,8-dihydro-2H,7H-spiro[furo[2,3-e]isoindole-3,4′-piperidin]-7-yl)piperidine-2,6-dione] | 100 to 500 nM | – | 1 to 10 nM | – | > 1000 nM | 20 to 40% | < 20% | – | –
11 | [2H]C([2H])(c1cccc(-c2cnn(C([2H])([2H])[2H])c2)c1)N1CCC2(COc3c2ccc2c3CN([C@H]3CCC(=O)NC3=O)C2=O)C(F)(F)C1 (stereo partly drawn) [Compound B48, (3S)-3-(3′,3′-difluoro-1′-((3-(1-(methyl-d3)-1H-pyrazol-4-yl)phenyl)methyl-d2)-6-oxo-6,8-dihydro-2H,7H-spiro[furo[2,3-e]isoindole-3,4′-piperidin]-7-yl)piperidine-2,6-dione] | 100 to 500 nM | – | < 1 nM | – | > 1000 nM | 60 to 80% | < 20% | – | –
12 | [2H]C1([2H])Oc2c(ccc3c2CN(C2CCC(=O)NC2=O)C3=O)C12CCN(Cc1cccc(-c3cnn(C)c3)c1)CC2 (stereo not drawn) [Compound B13, 3-(1′-(3-(1-methyl-1H-pyrazol-4-yl)benzyl)-6-oxo-6,8-dihydro-2H,7H spiro[furo[2,3-e]isoindole-3,4′-piperidin]-7-yl-2,2-d2)piperidine-2,6-dione] | 100 to 500 nM | – | 1 to 10 nM | – | > 1000 nM | 60 to 80% | < 20% | – | –
13 | O=C1CC[C@H](N2Cc3c4c(cc(Cl)c3C2=O)C2(CCN(Cc3cccc5cn[nH]c35)CC2)CO4)C(=O)N1 [Compound B18, (S)-3-(1′-((1H-indazol-7-yl)methyl)-5-chloro-6-oxo-6,8-dihydro-2H,7H-spiro[furo[2,3-e]isoindole-3,4′-piperidin]-7-yl)piperidine-2,6-dione] | 100 to 500 nM | – | > 1000 nM | – | > 1000 nM | < 20% | < 20% | – | –
14 | Cn1ncc2cccc(CN3CCC4(COc5c4ccc4c5CN([C@H]5CCC(=O)NC5=O)C4=O)C(F)(F)C3)c21 (stereo partly drawn) [Compound B45, (3S)-3-(3′,3′-difluoro-1′-((1-methyl-1H-indazol-7-yl)methyl)-6-oxo-6,8-dihydro-2H,7H-spiro[furo[2,3-e]isoindole-3,4′-piperidin]-7-yl)piperidine-2,6-dione] | 100 to 500 nM | – | 1 to 10 nM | – | 10 to 100 nM | > 80% | 20 to 40% | – | –
15 | O=C1CC[C@H](N2Cc3c(ccc4c3OCC43CCN(Cc4ccc5c(c4)C(=O)NC5)CC3(F)F)C2=O)C(=O)N1 (stereo partly drawn) [Compound B31, (3S)-3-(3′,3′-difluoro-6-oxo-1′-((3-oxoisoindolin-5-yl)methyl)-6,8-dihydro-2H,7H-spiro[furo[2,3-e]isoindole-3,4′-piperidin]-7-yl)piperidine-2,6-dione] | 100 to 500 nM | – | 1 to 10 nM | – | > 1000 nM | 60 to 80% | < 20% | – | –

Reference: patent US20250215012A1, “IKZF2 DEGRADERS AND USES THEREOF” (REGENTS OF THE UNIVERSITY OF MICHIGAN, priority 2022, published 2025)
